A word on the IC50: it is the concentration at which inhibition is half-maximal.

Where a name gives a salt, the structure may show the parent alone.

Results on eleven compounds are retold here after US8445680B2, “Tetrahydrothieno pyridines” (Merck Sharp & Dohme Corp., priority 2008, dated 2013).

The target of the test is T1, FLAG-tagged full length PHD2 (Homo sapiens, UniProt Q9GZT9).
T1 construct: FLAG-tagged full length PHD2; FLAG; made in house; host or cells: baculovirus-infected Sf9 cells
T1 sequence (Q9GZT9 whole entry): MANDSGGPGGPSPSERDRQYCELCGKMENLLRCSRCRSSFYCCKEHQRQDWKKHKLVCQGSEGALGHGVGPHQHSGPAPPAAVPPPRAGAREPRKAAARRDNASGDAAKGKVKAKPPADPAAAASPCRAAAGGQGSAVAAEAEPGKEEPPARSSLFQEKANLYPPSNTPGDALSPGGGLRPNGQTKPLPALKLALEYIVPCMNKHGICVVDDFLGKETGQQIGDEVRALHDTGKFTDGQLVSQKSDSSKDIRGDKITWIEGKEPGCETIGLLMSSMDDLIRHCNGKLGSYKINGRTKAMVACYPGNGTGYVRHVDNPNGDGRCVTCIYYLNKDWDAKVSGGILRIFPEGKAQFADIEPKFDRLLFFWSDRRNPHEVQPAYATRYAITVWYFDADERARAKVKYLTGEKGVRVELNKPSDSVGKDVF
The experiment in a line: PHD2 inhibition assay (time resolved fluorescence, HIF-1α peptide hydroxylation, VHL detection). It is filed as biochemical. Particulars: 0.2 μM 2-oxoglutarate, 0.5 μM HIF-1α peptide, 2 hr at room temperature; read-out: PHD2 Activity (PHD2 binding activity expressed as IC50). The method, then:
To each well of a 96-well plate was added 1 μL of test compound in DMSO and 20 μl of assay buffer (50 mM Tris pH 7.4/0.01% Tween-20/0.1 mg/ml bovine serum albumin/10 μM ferrous sulfate/1 mM sodium ascorbate/20 μg/ml catalase) containing 0.15 μg/ml FLAG-tagged full length PHD2 expressed in and purified from baculovirus-infected Sf9 cells. After a 30 min preincubation at room temperature, the enzymatic reactions were initiated by the addition of 4 μL of substrates (final concentrations of 0.2 μM 2-oxoglutarate and 0.5 μM HIF-1α peptide biotinyl-[…]).
As for `O=C(O)CNC(=O)c1c(O)c2c(n(Cc3ccc(Oc4ccc(Cl)cc4)cc3)c1=O)CSC2` [Example 33, N-({1-[4-(4-chlorophenoxy)benzyl]-4-hydroxy-2-oxo-1,2,5,7-tetrahydrothieno[3,4-b]pyridin-3-yl}carbonyl)glycine], the IC50 was at most 10 nM.

For `CCOc1ccc(-c2ccc(Cn3c4c(c(O)c(C(=O)NCC(=O)O)c3=O)CSC4)cc2)cc1` [Example 34, N-({1-[(4′-ethoxybiphenyl-4-yl)methyl]-4-hydroxy-2-oxo-1,2,5,7-tetrahydrothieno[3,4-b]pyridin-3-yl}carbonyl)glycine], the 50% inhibitory concentration (IC50) was at most 10 nM.

Take `O=C(O)CNC(=O)c1c(O)c2c(n(Cc3ccc(-c4cccs4)cc3)c1=O)CSC2` [Example 35, N-({4-hydroxy-2-oxo-1-[4-(2-thienyl)benzyl]-1,2,5,7-tetrahydrothieno[3,4-b]pyridin-3-yl}carbonyl)glycine]: the half-inhibitory concentration (IC50) is at most 10 nM.

Consider `O=C(O)CNC(=O)c1c(O)c2c(n(Cc3ccc(-c4ccc(OC(F)(F)F)cc4)cc3)c1=O)CSC2` [Example 36, N-[(4-hydroxy-2-oxo-1-{[4′-(trifluoromethoxy)biphenyl-4-yl]methyl}-1,2,5,7-tetrahydrothieno[3,4-b]pyridin-3-yl)carbonyl]glycine], for which the IC50 was at most 10 nM.

With `CCN(CC)C(=O)c1ccccc1-c1ccc(Cn2c3c(c(O)c(C(=O)NCC(=O)O)c2=O)CSC3)cc1` [Example 37, N-{[1-({2′-[(diethylamino)carbonyl]biphenyl-4-yl}methyl)-4-hydroxy-2-oxo-1,2,5,7-tetrahydrothieno[3,4-b]pyridin-3-yl]carbonyl}glycine], the 50% inhibitory concentration (IC50) was at most 10 nM.

On to `O=C(O)CNC(=O)c1c(O)c2c(n(-c3ccc(-c4ccc(OC(F)(F)F)cc4)cc3)c1=O)CSC2` [Example 38, N-({4-hydroxy-2-oxo-1-[4′-(trifluoromethoxy)biphenyl-4-yl]-1,2,5,7-tetrahydrothieno[3,4-b]pyridin-3-yl}carbonyl)glycine], for which the IC50 lay in the range of 10 to 100 nM.

As for `O=C(O)CNC(=O)c1c(O)c2c(n(Cc3ccc(-c4cccc(Cl)c4)nc3)c1=O)CSC2` [Example 39, N-[(l-{[6-(3-chlorophenyl)pyridinium-3-yl]methyl}-4-hydroxy-2-oxo-1,2,5,7-tetrahydrothieno[3,4-b]pyridin-3-yl)carbonyl]glycine trifluoroacetate], the IC50 is at most 10 nM.

As to `O=C(O)CNC(=O)c1c(O)c2c(n(Cc3ccc(-c4ccc(F)cc4)nc3)c1=O)CSC2` [Example 40, N-[(1-{[6-(4-fluorophenyl)pyridinium-3-yl]methyl}-4-hydroxy-2-oxo-1,2,5,7-tetrahydrothieno[3,4-b]pyridin-3-yl)carbonyl]glycine trifluoroacetate], the concentration for half-maximal inhibition (IC50) is at most 10 nM.

With `O=C(O)CNC(=O)c1c(O)c2c(n(Cc3ccc(-c4ccccc4Cl)nc3)c1=O)CSC2` [Example 41, N-[(l-{[6-(2-chlorophenyl)pyridinium-3-yl]methyl}-4-hydroxy-2-oxo-1,2,5,7-tetrahydrothieno[3,4-b]pyridin-3-yl)carbonyl]glycine trifluoroacetate], the IC50 was at most 10 nM.

For the compound `O=C(O)CNC(=O)c1c(O)c2c(n(Cc3ccc(-c4ccccc4F)nc3)c1=O)CSC2` [Example 43, N-[(l-{[6-(2-fluorophenyl)pyridin-3-yl]methyl}-4-hydroxy-2-oxo-1,2,5,7-tetrahydrothieno[3,4-b]pyridin-3-yl)carbonyl]glycine], the IC50 was at most 10 nM.

Turning to `O=C(O)CNC(=O)c1c(O)c2c(n(Cc3ccc(-c4ccc(C(F)(F)F)cc4)nc3)c1=O)CSC2` [Example 44, N-{[4-hydroxy-2-oxo-1-({6-[4-(trifluoromethyl)phenyl]pyridinium-3-yl}methyl)-1,2,5,7-tetrahydrothieno[3,4-b]pyridin-3-yl]caxbonyl}glycine trifluoroacetate], the half-inhibitory concentration (IC50) was at most 10 nM.
